From patent US20150335637A1, “COMPOSITIONS AND METHODS FOR TREATING CUTANEOUS T CELL LYMPHOMA” (THE TRUSTEES OF THE UNIVERSITY OF PENNSYLVANIA, priority 2013, published 2015)

Test system: cutaneous T-cell lymphoma (CTCL) lesions
Assay: Phase I open label trial of resiquimod gel, clinical response of skin lesions
Format: in vivo, human
Experimental: The final trial design calls for a total of 16-20 patients, with the first half cohort treated topically with 0.06% gel and the second half cohort treated topically with 0.03% gel.
According to the study design, treatment of only four to five target lesions is permitted for eight weeks; followed by four weeks of rest and another eight weeks of therapy. Final evaluation is conducted after four weeks off of therapy.

Structure (SMILES): CCOCc1nc2c(N)nc3ccccc3c2n1CC(C)(C)O [resiquimod, 4-amino-α,α-dimethyl-2-ethoxymethyl-1H-imidazo[4,5-c]quinolin-1-ethanol]
- skin lesions of one patient (FIG. 1) (patient refractory to previous treatments, before application vs end of week 8): clears the treated lesions and induces resolution of distant lesions
- clinical response rates for treated and untreated lesions (refractory early stage CTCL patients): high clinical response rates of both treated as well as distant, non-treated lesions
